According to article PMC12731536, “Sc(III) Complexes of Pyclen Derivative Ligands as Probes for Hypoxia: Synthesis, Chemical Characterization, ^44Sc‐Radiolabeling, and Preclinical Assessment” (Chemistry (Weinheim an Der Bergstrasse, Germany), 2025):
Read-outs that look alike come from different tables or passages of the source. One block for each molecule: values may come before it.

Tests used:
[1] = I = 0.15 M NaCl, T = 25 °C; cited from earlier work
[2] = pH‐potentiometric determination of ligand protonation constants; format: physicochemical; settings: I = 0.15 M NaCl, T = 25 °C
Method: The equilibrium study of the PC2AM^nBu ligand has been started by determining the protonation constants in 0.15 M and 1.00 M NaCl ionic strength. (As the stability of the Sc(III) complex was determined in 1.00 M ionic strength, we had to perform the pH‐potentiometric titration of ligands using 1.00 M ionic strengths also.) The results of pH‐potentiometric measurement are shown in Table 1, where the corresponding data for 3,9‐PC2A,^[ [42] ^] PCTA ^[ [46] ^] and PC2AM‐NI ligands determined under identical conditions are also presented. Knowledge of the protonation constants defined by Eqn. 1 and 2 are essential for the calculation of the stability constants of the Sc(III) complexes:
(1) PC2AM^nBu^2−+nH^+⇌Hn(PC2AM^nBu)^−2+n (2) βn=HnPC2AM^nBu^−2+n/PC2AM^nBu^2−H^+^n
The protonation constants of the ligands, as well as the concentrations of the ligand stock solutions, were determined by pH‐potentiometric method using a Metrohm 785 DMP Titrino automatic titrator using a Metrohm 6.00234.100 combined glass electrode. The titrations were carried out in the pH range 1.75–11.80 and the pH electrode was calibrated by a two‐point calibration routine with the use of 0.05 M KH‐phthalate (pH = 4.005) and 0.01 M borax (pH = 9.177 buffers. The samples were stirred at 25 °C (±0.1 °C) and N2 gas bubbled into the system to ensure inert conditions and to eliminate the effect of the presence of CO2. For the calculation of [H^+] from the measured pH values, the method proposed by Irving et al. was applied.^[ [61] ^] For this, a 0.01 M HCl solution was titrated with the standardized NaOH solution in the presence of 0.15 M NaCl ionic strength at 25 °C. The differences between the measured (pHread) and calculated pH (‐log[H^+]) values were used to obtain the equilibrium H^+ concentration from the pHmeas values during the titrations. By fitting the resulting titration curves (pH – V (NaOH) data pairs) with the PSEQUAD program, the protonation constants of the ligands were determined.^[ [47] ^] The titration of the [Sc(PC2AM^nBu)]^+ with NaOH was performed with the same method by applying very similar conditions.

[3] = test system: B16‐F10 tumor‐bearing C57BL/6 mice; assay: In vivo PET studies (MiniPET‐II); settings: n = 5
From the text: The B16‐F10 mouse melanoma cell line (MC1‐R positive) was the kind gift of the Department of Immunology, Faculty of Medicine, University of Debrecen (Debrecen, Hungary). The cells were routinely cultivated according to the manufacturer's protocols using Dulbecco's Modified Eagle's medium (DMEM, Merck Life Science Ltd., Budapest, Hungary) supplemented with 1% (v/v) MEM Non‐Essential Amino Acid solution (Merck Life Science Ltd.), 1% MEM Vitamins solution (Merck Life Science Ltd.), 10% Fetal Bovine Serum (FBS, GIBCO Life Technologies, Billings, MT, USA), and 1% Antibiotic and Antimicotic solution (Merck Life Science Ltd.) at 37 °C in a humidified atmosphere containing 5% CO2. For tumor induction the cells were used at 85% confluence. Cell viability was determined by applying trypan blue exclusion assay. Those cells were used for subsequent experiments where the staining confirmed that more than 90% of them were viable.
(§1) All animal experiments confirmed to all applicable sections of the Hungarian Laws and the directions and regulations of the European Union, and the in vivo studies have been ethically approved by the Ethics Committee for Animal Experimentation of the University of Debrecen (license number: 16/2020/DEMÁB). C57BL/6 male mice (n = 32, older than 12 weeks, approx. 20 grams) obtained from Charles River Animalab Ltd. (Budapest, Hungary) were used for in vivo PET studies and biodistribution assays. To induce tumor models, 20 mice were subcutaneously transplanted with approximately 3x10^6 tumor cells (in 100 µL physiological saline) at the left shoulder area. Tumor growth was regularly monitored by using caliper measurements. During tumor generation inhalation anesthesia was induced using 3% isoflurane (Forane, AbbVie, Chicago, IL, USA), 0.4 L/min O2, and 0.8 L/min N2O.
Preclinical PET studies were performed on the MiniPET‐II scanner of the Department of Nuclear Medicine and Translational Imaging, Institute of Medical Imaging, Faculty of Medicine, University of Debrecen (Debrecen, Hungary). Fourteen days post tumor induction, tumor‐bearing mice (n = 20) were anesthetized (see above) and tail vein injected with approximately 5–7 MBq of [^44Sc][Sc(PC2AM‐NI)]^+ or [^44Sc][Sc(PC2A‐Ph‐NI)]^+. After a 90 ‐ and a 240‐minutes awake incubation period, the mice were re‐anesthetized and 20‐minutes static PET scans were taken. To quantify radiopharmaceutical uptake, followed by image reconstruction (3D ordered‐subsets expectation‐maximization algorithm (3D‐OSEM)), volumes of interest (VOIs) were manually outlined on the tumors and on the hindlimb muscle tissue as a reference region. Using a dedicated imaging analysis software: BrainCAD image analysis software (version: 1.12‐bulid3), mean standardized uptake values (SUVmean) were determined with the following equation: SUV = [VOI activity (Bq/mL)]/[injected activity (Bq)/animal weight (g)]. To assess image contrast, tumor‐to‐off‐target ratios (tumor‐to‐muscle ratio/T/M) were also calculated.

[4] = test system: healthy control and B16‐F10 melanoma cell‐bearing mice; assay: Ex vivo biodistribution studies; format: in vivo; settings: for B16‐F10 tumor uptake: 14 days after cancer cell inoculation, n = 5 tumor‐bearing mice
From the text: as §1
To evaluate the organ distribution of the novel ^44Sc‐labeled radiotracers, ex vivo biodistribution experiments were additionally performed. Healthy control and tumor‐bearing mice were administered with approximately 5–7 MBq of [^44Sc][Sc(PC2AM‐NI)]^+ or [^44Sc][Sc(PC2A‐Ph‐NI)]^+ and at 90 ‐ and 240‐minutes post injection, all of them were put to death. Organs and tissues of interest were collected, weighed wet, and γ‐counted (Perkin‐Elmer Packard 406 Cobra, Waltham, MA, USA). After decay correction, the radioactivity of each tissue and organ was calculated as %ID/g.

Structure (SMILES): O=C(O)CN1CCNCCN(CC(=O)O)Cc2cccc(n2)C1 [3,9‐PC2A]
log K 1 ^H [1]: 12.25 | log K 2 ^H [1]: 5.97 | log K 3 ^H [1]: 3.47 | log K 4 ^H [1]: 1.99 | log β 2 ^H [1]: 18.22

log K 1 ^H [2]: 8.60(3) | log K 2 ^H [2]: 7.39(3) | log K 3 ^H [2]: 2.28(3) | log K 4 ^H [2]: 1.58(3) | log β 2 ^H [2]: 15.99
Structure (SMILES): O=C(O)CN1CCN(CC(=O)NCCCCCCn2ccnc2[N+](=O)[O-])CCN(CC(=O)O)Cc2cccc(n2)C1 [PC2AM‐NI]

muscle SUVmean ([3]; 90 minutes post injection): 0.02 ± 0.01 | muscle SUVmean ([3]; 240 minutes post injection): 0.01 ± 0.01 | Blood uptake ([4]; 90 minutes post injection): 0.09 ± 0.02 %ID/g | Bone uptake ([4]; 90 minutes post injection): 0.02 ± 0.00 %ID/g | Brain uptake ([4]; 90 minutes post injection): 0.01 ± 0.01 %ID/g | Fat uptake ([4]; 90 minutes post injection): 0.05 ± 0.02 %ID/g | Heart uptake ([4]; 90 minutes post injection): 0.04 ± 0.01 %ID/g | Kidney uptake ([4]; 90 minutes post injection): 0.83 ± 0.29 %ID/g | Liver uptake ([4]; 90 minutes post injection): 1.55 ± 1.66 %ID/g | Lung uptake ([4]; 90 minutes post injection): 0.10 ± 0.02 %ID/g | Muscle uptake ([4]; 90 minutes post injection): 0.02 ± 0.00 %ID/g | Pancreas uptake ([4]; 90 minutes post injection): 0.04 ± 0.02 %ID/g | Spleen uptake ([4]; 90 minutes post injection): 0.07 ± 0.02 %ID/g | Stomach uptake ([4]; 90 minutes post injection): 0.09 ± 0.02 %ID/g | Urine activity ([4]; 90 minutes post injection): 77.19 ± 37.26 %ID/g | gall bladder uptake ([4]; 90 minutes post injection): 42.46 ± 33.31 %ID/g | large intestines uptake ([4]; 90 minutes post injection): 0.10 ± 0.07 %ID/g | salivary gland uptake ([4]; 90 minutes post injection): 0.03 ± 0.00 %ID/g | small intestines uptake ([4]; 90 minutes post injection): 0.92 ± 0.33 %ID/g | B16‐F10 tumor uptake ([4]; 90 minutes post injection): 0.27 ± 0.07 %ID/g | Blood uptake ([4]; 240 minutes post injection): 0.02 ± 0.01 %ID/g | Bone uptake ([4]; 240 minutes post injection): 0.01 ± 0.00 %ID/g | Brain uptake ([4]; 240 minutes post injection): 0.01 ± 0.00 %ID/g | Fat uptake ([4]; 240 minutes post injection): 0.01 ± 0.00 %ID/g | Heart uptake ([4]; 240 minutes post injection): 0.01 ± 0.00 %ID/g | Kidney uptake ([4]; 240 minutes post injection): 0.60 ± 0.37 %ID/g | Liver uptake ([4]; 240 minutes post injection): 0.90 ± 1.01 %ID/g | Lung uptake ([4]; 240 minutes post injection): 0.03 ± 0.01 %ID/g | Pancreas uptake ([4]; 240 minutes post injection): 0.01 ± 0.00 %ID/g | Spleen uptake ([4]; 240 minutes post injection): 0.03 ± 0.02 %ID/g | Stomach uptake ([4]; 240 minutes post injection): 0.04 ± 0.03 %ID/g | Urine activity ([4]; 240 minutes post injection): 5.44 ± 1.23 %ID/g | gall bladder uptake ([4]; 240 minutes post injection): 15.82 ± 13.89 %ID/g | large intestines uptake ([4]; 240 minutes post injection): 0.12 ± 0.12 %ID/g | salivary gland uptake ([4]; 240 minutes post injection): 0.01 ± 0.01 %ID/g | small intestines uptake ([4]; 240 minutes post injection): 0.20 ± 0.10 %ID/g | B16‐F10 tumor uptake ([4]; 240 minutes post injection): 0.17 ± 0.07 %ID/g
Structure (SMILES): O=C([O-])CN1CCN(CC(=O)NCCCCCCn2ccnc2[N+](=O)[O-])CCN(CC(=O)[O-])Cc2cccc(n2)C1.[44Sc+3] [[^44Sc][Sc(PC2AM‐NI)]^+]
B16‐F10 SUVmean ([3]; 90 minutes post injection): 0.08 ± 0.02 | T/M ratio (tumor‐to‐muscle) ([3]; 90 minutes post injection): 4.04 ± 0.02 | B16‐F10 SUVmean ([3]; 240 minutes post injection): 0.04 ± 0.02 | T/M ratio (tumor‐to‐muscle) ([3]; 240 minutes post injection): 4.02 ± 0.02
